In publication PMC10249623 (Environmental Science & Technology, 2023):
Like-named read-outs stand apart in the source and are kept apart here. Marks after values point to notes of the source that are not given here.

Assays:
[1] = Hexadecane/water partition coefficient, shared-headspace method; assay type: physicochemical; conditions: for log KHxd/w shared-headspace method mean: 25 °C, n = 5
Protocol: The method concept is based on the existing publications that used a shared-headspace system for salting-out experiments[26] and ecotoxicity tests.[27],[28] Hexadecane solution of PFAS was placed in a 350 μL insert hosted by a 1.5 mL GC vial. This small vial was put in a 10 mL headspace vial that contained 1 mL of water. The 10 mL vial was closed with a PTFE-lined septum and gently shaken at 25 °C for 24 h. During this time, the compound dissolved in hexadecane was partially transferred to water via the headspace until a three-phase partition equilibrium was reached between hexadecane, air, and water. Water was then sampled and immediately extracted with n-hexane for GC/MS analysis. The hexadecane phase was also analyzed, which confirmed 85–100% mass conservation (Table S3). KHxd/w was obtained from the measured concentration in water, as in the batch partition method. […] The shared-headspace method is useful for compounds with sufficient volatility (relatively high Kaw, low KHxd/air) and hydrophobicity (relatively high KHxd/w), as these properties ensure an efficient transfer from hexadecane to water via air and negligible concentration depletion in hexadecane. Therefore, nine PFAS that meet this requirement were measured by this method, while all eight sulfonamides and four short-chain FTOHs were not.
SI-1 Extended descriptions for experimental methods
Pure PFAS were dissolved in hexadecane either directly or using acetone as carrier solvent. Up to three PFAS were mixed in hexadecane and investigated simultaneously. The PFAS concentration in hexadecane was 0.1–2000 mg/L, depending on the expected KHxd/w and the sensitivity of the quantification method. The acetone content in hexadecane was up to 0.3% (v/v). This acetone should have largely partitioned into water during the partition experiment, where the final concentration in water was estimated to be < 0.3% (v/v). We assumed that this concentration of acetone in water does not have a significant influence on partition coefficients of PFAS. […]
The water phase was analyzed directly by liquid chromatography/mass spectrometry (LC/MS) (for PFBSA, PFHxSA, MeFBSA, MeFHxSA, MeFBSE), diluted with acetonitrile and analyzed with LC/MS (for PFOSA EtFHxSA, EtFHxSE), or liquid-liquid-extracted with n-hexane and analyzed by gas chromatography/mass spectrometry (GC/MS) (for all others). The hexadecane phase was back-extracted with water (for PFBSA, PFHxSA) or with 0.1 mM NaOH water (for PFOSA) and measured by LC/MS, or it was diluted with n-hexane by a factor of 100–500 and analyzed by GC/MS (for all others). […]
The 95% confidence interval (CI) of the mean (x) was calculated with the formula, x ± 2.78 SD/√5, where SD is the standard deviation, based on the t-distribution and n = 5. […]
PFHxSA, PFOSA, MeFBSA, MeFHxSA, and EtFHxSA were performed using 1 mM HCl aqueous solution […]
A shared headspace method was used to measure KHxd/w for nine PFAS. In this method, hexadecane solution of PFAS was prepared as described above and 300 μL was placed in a 350-μL glass insert

[2] = Air/water partition coefficient via hexadecane/air/water thermodynamic cycle (eq 1); assay type: physicochemical; conditions: for log Kaw eq 1: 25 °C, KHxd/w divided by KHxd/air
Protocol: The objectives of this study are to obtain new experimental data for Kaw at 25 °C for a series of neutral PFAS and to evaluate Kaw prediction models. […] To circumvent the difficulty associated with direct measurement of Kaw, we determined Kaw indirectly by measuring the hexadecane/water partition coefficient (KHxd/w) and applying the hexadecane/air/water thermodynamic cycle: [drawing 1] 1 where KHxd/air is the hexadecane/air partition coefficient. KHxd/w can be measured more reliably than Kaw because gas phase quantification is not needed and hexadecane has a larger solubilization capacity than water, which minimizes the problem of third-phase sorption. […] The new Kaw data for 21 PFAS were compared to predictions by four models that are often used in environmental risk assessments.

[3] = Hexadecane/water partition coefficient, batch partition method; assay type: physicochemical; conditions: for log KHxd/w batch partition method mean: 25 °C, n = 5; for log KHxd/w with pure water lower than with 1 mM HCl solution by: preliminary experiments, pure water vs 1 mM HCl
[4] = Direct measurement of Kaw using the standard VPR-HS method; assay type: physicochemical; conditions: measured by the VPR-HS method in this study, 25 °C
From the text: Kaw values for five PFAS were directly measured using a standard VPR-HS method, as in the literature.[7],[8] The experimental procedure is similar to what has been described previously for KHxd/air([21]) and is summarized in SI-3.

[5] = Hexadecane/water partition coefficient, modified VPR-HS method; assay type: physicochemical; conditions: 25 °C
Protocol: KHxd/w was also measured with a modified version of the VPR-HS method; 20 mL headspace vials were filled with water and hexadecane with different volume ratios. The total liquid volume was always 20 mL. All vials received the same amount of the target compound. After equilibration at 25 °C, the headspace was injected into the GC/MS. […] Here, response linearity as well as no significant mass of the compound in the headspace and any other interface (e.g., vial wall, hexadecane/water interface, septum) was assumed. As α, m, and Vtot (=20 mL) are constant for a given compound, KHxd/w can be fitted on the data of PA vs VHxd. Theoretically, KHxd/w could be determined with a minimum of two VHxd conditions (e.g., 0 and 20 mL), whereas at least four VHxd values were prepared in this work.

[6] = cited from earlier work
[7] = 1 mM HCl was used instead of pure water

SMILES	log KHxd/w shared-headspace method mean [1]	log Kaw eq 1 [2]	log KHxd/w batch partition method mean ([3]; pure water)	also measured
FC(F)C(F)(F)C(F)(F)C(F)(F)C(F)(F)C(F)(F)CI [6:1 FTI-7H, 1H,1H,7H-perfluoroheptyl iodide]	4.62	0.70	–	log KHxd/w lower than that of 6:1 FTI by ([1]; difference to 6:1 FTI): 1.0 log unit; log Kaw lower than that of 6:1 FTI by ([2]; difference to 6:1 FTI): 1.6 log units
NS(=O)(=O)C(F)(F)C(F)(F)C(F)(F)C(F)(F)C(F)(F)C(F)(F)F [PFHxSA, perfluorohexane sulfonamide]	–	–3.94	–	log KHxd/w batch partition method mean [3, 7]: 0.39 ^c; log KHxd/w with pure water lower than with 1 mM HCl solution by [3]: 0.5–0.9 log units
C=C(C)C(=O)OCCC(F)(F)C(F)(F)C(F)(F)C(F)(F)F [4:2 FTMAC, 1H,1H,2H,2H-perfluorohexyl methacrylate]	4.65	0.62	–	log Kaw VPR-HS [4]: –0.14 ^d
CC(O)C(F)(F)C(F)(F)C(F)(F)C(F)(F)C(F)(F)F (stereo not shown) [5:2s FTOH, 1H,1H,1H,2H-perfluoroheptan-2-ol]	2.04	–0.15	2.00	log KHxd/w modified VPR-HS method mean [5]: 1.55
OCCC(F)(F)C(F)(F)C(F)(F)C(F)(F)C(F)(F)C(F)(F)F [6:2 FTOH, 1H,1H,2H,2H-perfluorooctan-1-ol]	2.51	–0.64	2.50	log Kaw VPR-HS or VP/S ([6]; 23 or 24 °C ref 12): −0.44; log Kaw VPR-HS or VP/S ([6]; literature value ref 7): –1.47; log Kaw VPR-HS or VP/S ([6]; literature value ref 8): −0.56; log Kaw VPR-HS or VP/S ([6]; literature value ref 9): 0.37
OCC(F)(F)C(F)(F)C(F)(F)F [3:1 FTOH, 1H,1H-perfluorobutan-1-ol]	–	–	–	log Kaw VPR-HS [4]: –2.03 ^d
NS(=O)(=O)C(F)(F)C(F)(F)C(F)(F)C(F)(F)C(F)(F)C(F)(F)C(F)(F)C(F)(F)F [PFOSA, perfluorooctane sulfonamide]	–	–3.04	–	log KHxd/w batch partition method mean [3, 7]: 1.80 ^c
FC(F)(F)C(F)(F)C(F)(F)C(F)(F)C(F)(F)C(F)(F)CI [6:1 FTI, 1H,1H-perfluoroheptyl iodide]	5.66	2.28	–	–
FC(F)(F)C(F)(F)C(F)(F)C(F)(F)CCI [4:2 FTI, 1H,1H,2H,2H-perfluorohexyl iodide]	4.93	1.60	–	–
CCNS(=O)(=O)C(F)(F)C(F)(F)C(F)(F)C(F)(F)C(F)(F)C(F)(F)F [EtFHxSA, N-ethyl perfluorohexane sulfonamide]	–	–1.58	–	log KHxd/w batch partition method mean [3, 7]: 2.95 ^c
OCCC(F)(F)C(F)(F)C(F)(F)C(F)(F)C(F)(F)C(F)(F)C(F)(F)C(F)(F)F [8:2 FTOH, 1H,1H,2H,2H-perfluorodecan-1-ol]	3.75	0.11	–	log Kaw VPR-HS or VP/S ([6]; 23 or 24 °C ref 12): 0.96; log Kaw VPR-HS or VP/S ([6]; literature value ref 7): –1.82; log Kaw VPR-HS or VP/S ([6]; literature value ref 8): 0.58; log Kaw VPR-HS or VP/S ([6]; literature value ref 9): 0.31
CCN(CCO)S(=O)(=O)C(F)(F)C(F)(F)C(F)(F)C(F)(F)C(F)(F)C(F)(F)F [EtFHxSE, N-ethyl perfluorohexane sulfonamidoethanol]	–	–3.02	2.76	–
OCC(F)(F)C(F)(F)C(F)(F)C(F)(F)C(F)(F)C(F)(F)C(F)(F)F [7:1 FTOH, 1H,1H-perfluorooctan-1-ol]	2.70	–0.26	–	–
C=CC(=O)OCCC(F)(F)C(F)(F)C(F)(F)C(F)(F)C(F)(F)C(F)(F)F [6:2 FTAC, 1H,1H,2H,2H-perfluorooctyl acrylate]	5.43	1.27	–	–
OCCCC(F)(F)C(F)(F)C(F)(F)F [3:3 FTOH, 3-(perfluoropropyl)propan-1-ol]	–	–2.17	0.52	log KHxd/w modified VPR-HS method mean [5]: 0.32; log Kaw VPR-HS [4]: –2.04 ^d
CN(CCO)S(=O)(=O)C(F)(F)C(F)(F)C(F)(F)C(F)(F)F [MeFBSE, N-methyl perfluorobutane sulfonamidoethanol]	–	–4.35	0.49	–
CNS(=O)(=O)C(F)(F)C(F)(F)C(F)(F)C(F)(F)C(F)(F)C(F)(F)F [MeFHxSA, N-methyl perfluorohexane sulfonamide]	–	–2.01	–	log KHxd/w batch partition method mean [3, 7]: 2.25 ^c
OCCCCC(F)(F)C(F)(F)C(F)(F)C(F)(F)F [4:4 FTOH, 4-(perfluorobutyl)butan-1-ol]	–	–1.97	1.60	log KHxd/w modified VPR-HS method mean [5]: 1.43; log Kaw VPR-HS [4]: –1.28 ^d
NS(=O)(=O)C(F)(F)C(F)(F)C(F)(F)C(F)(F)F [PFBSA, perfluorobutane sulfonamide]	–	–4.89	–	log KHxd/w batch partition method mean [3, 7]: –1.15 ^c; log KHxd/w with pure water lower than with 1 mM HCl solution by [3]: 0.5–0.9 log units
OCCC(F)(F)C(F)(F)C(F)(F)C(F)(F)F [4:2 FTOH, 1H,1H,2H,2H-perfluorohexan-1-ol]	–	–1.57	0.79	log KHxd/w modified VPR-HS method mean [5]: 0.75; log Kaw VPR-HS or VP/S ([6]; 23 or 24 °C ref 12): −1.52; log Kaw VPR-HS or VP/S ([6]; literature value ref 7): −1.30; log Kaw VPR-HS or VP/S ([6]; literature value ref 8): −1.63; log Kaw VPR-HS or VP/S ([6]; literature value ref 9): −1.21; log Kaw VPR-HS [4]: –1.56
CNS(=O)(=O)C(F)(F)C(F)(F)C(F)(F)C(F)(F)F [MeFBSA, N-methyl perfluorobutane sulfonamide]	–	–2.85	–	log KHxd/w batch partition method mean [3, 7]: 0.82 ^c
